# Laboratory results reported in patent US6737383B1, “Herbicidal oxadiazolidines” (priority 1999, dated 2004).
# Legend:
# duck salad = assay: Test B flood test duck salad; type: in vivo, Heteranthera limosa
# Method in brief: (§1)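 Each value is a visual injury score relative to controls, with 10 meaning complete control and 0 no effect. Evaluation took place twelve to sixteen days after the 2-leaf-stage plants were treated and kept in the greenhouse.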
# soybean = assay: Test B pre/postemergence soybean; type: in vivo, Glycine max
# Method in brief: (§2)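 Response is a visual 0-to-10 score relative to untreated plants, where 0 means no effect and 10 means complete control, taken twelve to sixteen days after application. Treatments went onto soil at planting and onto foliage of 1- to 4-leaf plants, using a surfactant-containing non-phytotoxic solvent.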
# blackgrass = assay: Test B pre/postemergence blackgrass; type: in vivo, Alopecurus myosuroides
# Method in brief: as §2
# morningglory = assay: Test B pre/postemergence morningglory; type: in vivo, Ipomoea hederacea
# Method in brief: as §2
# wild oat = assay: Test B pre/postemergence wild oat; type: in vivo, Avena fatua
# Method in brief: as §2
# velvetleaf = assay: Test B pre/postemergence velvetleaf; type: in vivo, Abutilon theophrasti
# Method in brief: as §2
# rice = assay: Test B flood test rice; type: in vivo, Oryza sativa
# Method in brief: as §1
# corn = assay: Test B pre/postemergence corn; type: in vivo, Zea mays
# Method in brief: as §2
# surinam grass = assay: Test B pre/postemergence surinam grass; type: in vivo, Brachiaria decumbens
# Method in brief: as §2
# rape = assay: Test B pre/postemergence rape; type: in vivo, Brassica napus
# Method in brief: as §2
# smallflower flatsedge = assay: Test B flood test smallflower flatsedge; type: in vivo, Cyperus difformis
# Method in brief: as §1
# cocklebur = assay: Test B pre/postemergence cocklebur; type: in vivo, Xanthium strumarium
# Method in brief: as §2
# giant foxtail = assay: Test B pre/postemergence giant foxtail; type: in vivo, Setaria faberii
# Method in brief: as §2
# wheat = assay: Test B pre/postemergence wheat; type: in vivo, Triticum aestivum
# Method in brief: as §2
# sugar beet = assay: Test B pre/postemergence sugar beet; type: in vivo, Beta vulgaris
# Method in brief: as §2
# pigweed = assay: Test B pre/postemergence pigweed; type: in vivo, Amaranthus retroflexus
# Method in brief: as §2
# bamyardgrass = assay: Test B flood test barnyardgrass; type: in vivo, Echinochloa crus-galli
# Method in brief: as §1
# crabgrass = assay: Test B pre/postemergence crabgrass; type: in vivo, Digitaria sanguinalis
# Method in brief: as §2
# purple nutsedge = assay: Test B pre/postemergence purple nutsedge; type: in vivo, Cyperus rotundus
# Method in brief: as §2
# [1] = Rate 62 g/ha, flood test species, Pre-emergence, visual evaluation after twelve to sixteen days
# [2] = Rate 125 g/ha, under heading Pre-emergence, flood test species, visual evaluation after twelve to sixteen days
# [3] = Rate 250 g/ha, Pre-emergence, flood-test species, scale 0 to 10, 0 is no effect, 10 is complete control
# [4] = Rate 500 g/ha, Pre-emergence, flood test species, scale 0 to 10 (0 no effect, 10 complete control)
# [5] = Postemergence, Rate 250 g/ha, scale 0 to 10, 0 is no effect, 10 is complete control
# [6] = Postemergence, Rate 500 g/ha, scale of 0 to 10 where 0 is no effect and 10 is complete control
# [7] = Preemergence, Rate 62 g/ha, scale 0 to 10 (0 no effect, 10 complete control)
# [8] = Preemergence, Rate 125 g/ha, scale of 0 to 10 where 0 is no effect and 10 is complete control
# [9] = Preemergence, Rate 250 g/ha, scale 0 to 10, 0 is no effect, 10 is complete control
# [10] = Preemergence, Rate 500 g/ha, scale 0 to 10, 0 is no effect, 10 is complete control
# [11] = Postemergence, Rate 125 g/ha, scale 0 to 10, 0 is no effect, 10 is complete control
# [12] = Preemergence, Rate 250 g/ha, scale of 0 to 10 where 0 is no effect and 10 is complete control
# [13] = Rate 62 g/ha, Postemergence, scale of 0 to 10 where 0 is no effect and 10 is complete control
smiles,measurement,setting,value
Cc1nc(Cl)sc1C(C)n1c(=O)on(C(=O)N(c2ccc(F)cc2F)C(C)C)c1=O (stereo not shown) [Compound 405],"Plant response rating, Ducksalad (0 to 10 scale, 0 is no effect, 10 is complete control)",duck salad; [1],0
same,"Ducksalad plant response rating (0 to 10 scale, 0 is no effect, 10 is complete control)",duck salad; [2],0
same,Ducksalad plant response rating,duck salad; [3],0
same,Ducksalad plant response rating,duck salad; [4],0
same,"Plant response rating, Soybean",soybean; [5],2
same,Soybean plant response rating,soybean; [6],3
same,"Plant response rating, Soybean",soybean; [7],0
same,"Plant response rating, Soybean",soybean; [8],0
same,Soybean plant response rating,soybean; [9],0
same,Soybean plant response rating,soybean; [10],3
same,"Plant response rating, Blackgrass",blackgrass; [11],0
same,"Plant response rating, Blackgrass",blackgrass; [5],0
same,Blackgrass plant response rating,blackgrass; [6],5
same,"Plant response rating, Blackgrass",blackgrass; [7],0
same,"Plant response rating, Blackgrass",blackgrass; [8],0
same,Blackgrass plant response rating,blackgrass; [12],0
same,Blackgrass plant response rating,blackgrass; [10],0
same,Blackgrass plant response rating,blackgrass; [13],0
same,"Plant response rating, Morningglory",morningglory; [5],5
same,Morningglory plant response rating,morningglory; [6],5
same,"Plant response rating, Morningglory",morningglory; [7],0
same,"Plant response rating, Morningglory",morningglory; [8],0
same,Morningglory plant response rating,morningglory; [9],0
same,Morningglory plant response rating,morningglory; [10],0
same,Wild oats plant response rating,wild oat; [6],0
same,"Plant response rating, Wild oats",wild oat; [7],0
same,"Plant response rating, Wild oats",wild oat; [8],0
same,Wild oats plant response rating,wild oat; [9],0
same,Wild oats plant response rating,wild oat; [10],0
same,"Plant response rating, Velvetleaf",velvetleaf; [5],0
same,Velvetleaf plant response rating,velvetleaf; [6],0
same,"Plant response rating, Velvetleaf",velvetleaf; [7],0
same,"Plant response rating, Velvetleaf",velvetleaf; [8],0
same,Velvetleaf plant response rating,velvetleaf; [9],0
same,Velvetleaf plant response rating,velvetleaf; [10],0
same,"Plant response rating, Rice (0 to 10 scale, 0 is no effect, 10 is complete control)",rice; [1],0
same,"Rice plant response rating (0 to 10 scale, 0 is no effect, 10 is complete control)",rice; [2],0
same,Rice plant response rating,rice; [3],0
same,Rice plant response rating,rice; [4],0
same,"Plant response rating, Corn",corn; [11],0
same,"Plant response rating, Corn",corn; [5],0
same,Corn plant response rating,corn; [6],0
same,"Plant response rating, Corn",corn; [7],0
same,"Plant response rating, Corn",corn; [8],0
same,Corn plant response rating,corn; [9],0
same,Corn plant response rating,corn; [13],0
same,"Plant response rating, B. signalgrass",surinam grass; [11],0
same,"Plant response rating, B. signalgrass",surinam grass; [5],0
same,B. signalgrass plant response rating,surinam grass; [6],0
same,"Plant response rating, B. signalgrass",surinam grass; [7],0
same,"Plant response rating, B. signalgrass",surinam grass; [8],0
same,B. signalgrass plant response rating,surinam grass; [12],0
same,B. signalgrass plant response rating,"surinam grass; Preemergence, Rate 500 g/ha, scale of 0 to 10 where 0 is no effect and 10 is complete control",0
same,B. signalgrass plant response rating,surinam grass; [13],0
same,"Plant response rating, Rape",rape; [5],0
same,Rape plant response rating,rape; [6],2
same,"Plant response rating, Rape",rape; [7],0
same,"Plant response rating, Rape",rape; [8],0
same,Rape plant response rating,rape; [9],0
same,Rape plant response rating,rape; [10],0
same,"Plant response rating, S. Flatsedge (0 to 10 scale, 0 is no effect, 10 is complete control)",smallflower flatsedge; [1],0
same,"S. Flatsedge plant response rating (0 to 10 scale, 0 is no effect, 10 is complete control)",smallflower flatsedge; [2],0
same,S. Flatsedge plant response rating,smallflower flatsedge; [3],0
same,S. Flatsedge plant response rating,smallflower flatsedge; [4],0
same,"Plant response rating, Cocklebur",cocklebur; [11],0
same,"Plant response rating, Cocklebur",cocklebur; [5],0
same,Cocklebur plant response rating,cocklebur; [6],0
same,"Plant response rating, Cocklebur",cocklebur; [7],0
same,"Plant response rating, Cocklebur",cocklebur; [8],0
same,Cocklebur plant response rating,cocklebur; [9],0
same,Cocklebur plant response rating,cocklebur; [10],0
same,Cocklebur plant response rating,cocklebur; [13],0
same,"Plant response rating, Giant foxtail",giant foxtail; [11],0
same,"Plant response rating, Giant foxtail",giant foxtail; [5],0
same,Giant foxtail plant response rating,giant foxtail; [6],6
same,"Plant response rating, Giant foxtail",giant foxtail; [7],0
same,"Plant response rating, Giant foxtail",giant foxtail; [8],8
same,Giant foxtail plant response rating,giant foxtail; [9],9
same,Giant foxtail plant response rating,giant foxtail; [10],10
same,Giant foxtail plant response rating,giant foxtail; [13],0
same,Wheat plant response rating,wheat; [6],0
same,"Plant response rating, Wheat",wheat; [7],0
same,"Plant response rating, Wheat",wheat; [8],0
same,Wheat plant response rating,wheat; [9],0
same,Wheat plant response rating,wheat; [10],0
same,"Plant response rating, Sugarbeets",sugar beet; [5],0
same,Sugarbeets plant response rating,sugar beet; [6],0
same,"Plant response rating, Sugarbeets",sugar beet; [7],0
same,"Plant response rating, Sugarbeets",sugar beet; [8],0
same,Sugarbeets plant response rating,sugar beet; [9],0
same,Sugarbeets plant response rating,sugar beet; [10],0
same,"Plant response rating, Redroot pigweed",pigweed; [5],0
same,Redroot pigweed plant response rating,pigweed; [6],0
same,"Plant response rating, Redroot pigweed",pigweed; [7],0
same,"Plant response rating, Redroot pigweed",pigweed; [8],0
same,Redroot pigweed plant response rating,pigweed; [9],0
same,Redroot pigweed plant response rating,pigweed; [10],0
same,"Plant response rating, Barnyardgrass (0 to 10 scale, 0 is no effect, 10 is complete control)",bamyardgrass; [1],0
same,"Barnyardgrass plant response rating (0 to 10 scale, 0 is no effect, 10 is complete control)",bamyardgrass; [2],0
same,Barnyardgrass plant response rating,bamyardgrass; [3],0
same,Barnyardgrass plant response rating,bamyardgrass; [4],0
same,"Plant response rating, Crabgrass",crabgrass; [11],0
same,"Plant response rating, Crabgrass",crabgrass; [5],0
same,Crabgrass plant response rating,crabgrass; [6],0
same,"Plant response rating, Crabgrass",crabgrass; [7],0
same,"Plant response rating, Crabgrass",crabgrass; [8],1
same,Crabgrass plant response rating,crabgrass; [9],8
same,Crabgrass plant response rating,crabgrass; [10],10
same,Crabgrass plant response rating,crabgrass; [13],0
same,"Plant response rating, Nutsedge",purple nutsedge; [5],0
same,Nutsedge plant response rating,purple nutsedge; [6],0
same,"Plant response rating, Nutsedge",purple nutsedge; [7],0
same,"Plant response rating, Nutsedge",purple nutsedge; [8],0
same,Nutsedge plant response rating,purple nutsedge; [9],0
same,Nutsedge plant response rating,purple nutsedge; [10],0
